Values after ≈ are worked out from the molar mass of the structure shown.
How the values were obtained:
Aqueous solubility assay = conditions: water with 0.4% DMSO, kinetic from dmso stock
Method: Water, PBS and aqueous HCl at pH2 having a final DMSO content of 0.4%, with the final DMSO concentration reaching 40 μM. Samples were placed in the incubator and shaken for 15 minutes.

c-Met [1] = target: T1, c-Met (Homo sapiens, UniProt P08581); assay: Delfia autophosphorylation kinase assay on the c-Met; assay type: biochemical; design: The purified His6 tagged cytoplasmic domain of c-Met was diluted to a concentration of 500 ng/ml; made in house; host or cells: Sf9 insect cells with recombinant baculovirus; Large-scale expression and purification were done by the contract lab Pan Vera; conditions: His6 tagged cytoplasmic domain of c-Met, 1 μM ATP; read-out: c-Met Delfia Autophos IC50
Method: This example describes the cloning, expression, and purification of the cytoplasmic domain of c-Met which has the c-Met receptor tyrosine kinase activity.
A DELFIA time resolved fluorescence assay was developed for screening of compounds that decreases the autophosphorylation thus the kinase activity of c-Met.
The DELFIA assay is non-radioactive. The autophophorylation of the c-Met is measured by an anti-phosphotyrosine antibody coupled to an Europium tag.
A major advantage of this format is that it allowed for the development of an autophosphorylation assay using Ni-chelate plates which bind the hexa-his tag on the recombinant Met kinase. Autophosphorylation assay allows to use a known substrate, Met kinase itself, for the phosphorylation. The DELFIA Met autophosphorylation assay is very sensitive with a signal to noise ratio in excess of 50:1.
The assay procedure for screening is as follows. The purified His6 tagged cytoplasmic domain of c-Met was diluted to a concentration of 500 ng/ml in enzyme dilution buffer (50 mM Tris-HCl, pH8.0, 0.1% BSA) and dispensed to assay plates at a volume of 50 μl per well. Black opaque HisGrab Nickel coated 96 well plates (Pierce, Rockford, Ill.) were selected to run the assay. Next, 2.5 μl of compound in 40% DMSO was added to test wells, 2.5 μl of 40% DMSO only was added to the negative control wells. The autophosphorylation reaction was initiated upon the addition of 50 μl of reaction buffer, 50 mM Tris-HCl, pH 8.0, 10 mM MgCl2, 0.1 mM Na3VO4, 1 mM DTT, 1 μM ATP. Plates were incubated at room temperature for 1 hour followed by 2 washes with 200 μl/well of PBS. Europium conjugated anti-phosphotyrosine antibody, Eu-PY20 from Perkin Elmer was diluted to 50 ng/ml in Delfia AB buffer (Perkin Elmer, Boston, Mass.), added to the 96 well assay plates at a volume of […], and incubated at room temperature for 2 hours. Assay plates were then washed 4 times each with 200 μl/well of Delfia wash buffer (Perkin Elmer). After the final wash 150 μl of Delfia Enhancement solution (Perkin Elmer) was added to each well of the assay plate and incubated at room temperature for 1 hour. Plates were read on an LJL Analyst instrument (Molecular Devices; Sunnyvale, Calif.) with filter settings of 360 excitation, 620 emission, and 410 dichroic. IC50 values were calculated using Graphpad Prism software (Graphpad Software; San Diego, Calif.).
Target sequence in this assay (P08581 956-1390 limits assumed): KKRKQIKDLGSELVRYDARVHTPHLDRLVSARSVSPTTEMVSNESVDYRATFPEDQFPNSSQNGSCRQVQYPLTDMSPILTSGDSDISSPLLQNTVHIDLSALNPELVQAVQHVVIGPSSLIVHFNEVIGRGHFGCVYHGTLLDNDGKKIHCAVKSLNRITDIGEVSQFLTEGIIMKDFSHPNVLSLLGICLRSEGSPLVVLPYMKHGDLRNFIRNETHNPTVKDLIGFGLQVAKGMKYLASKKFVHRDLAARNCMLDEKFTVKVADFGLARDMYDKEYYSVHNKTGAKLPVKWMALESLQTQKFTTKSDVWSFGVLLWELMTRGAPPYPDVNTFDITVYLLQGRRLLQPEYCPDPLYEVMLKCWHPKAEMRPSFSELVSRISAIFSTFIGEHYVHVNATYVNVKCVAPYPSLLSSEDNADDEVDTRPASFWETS

c-Met [2] = target: T1, c-Met; assay: Fluorescence polarization assay on the kinase activity of c-Met; assay type: biochemical; design: The c-Met kinase domain consists amino acid 1046-1390 of the c-Met protein; made in house; host or cells: Sf9 insect cells with baculovirus; conditions: 6H-TEV-cMet, poly Gly4Tyr substrate, 10 μM ATP; read-out: c-Met FP Enz IC50
Source text: A fluorescence polarization assay (FP) was developed for screening of compounds that decreases the kinase activity of c-Met.
A protein (6H-TEV-cMet) comprising c-Met kinase domain was cloned, recombinantly expressed and purified following a procedure similar to that as described in Example A. The protein comprises a His tag consisting of six histidines at its N-terminal, a TEV protease cleavage site, and the c-Met kinase domain. The c-Met kinase domain consists amino acid 1046-1390 of the c-Met protein as listed in GenBank protein accession number P08581.
For the c-Met kinase assay, the 6H-TEV-cMet was used as the enzyme, and a poly Gly4Tyr peptide (Sigma, P-0275) was used as the substrate. The kinase reaction was performed in a volume of 10 μl in HE microplates (LJL Biosystems). Assay conditions were as follows: 100 mM HEPES pH 7.5, 0.01% Tween-20, 1 mM DTT, 5 mM MgCl2, 10 μM ATP, 10 μg/ml poly Gly4Tyr. The kinase reaction was initiated upon addition of 10 nM 6H-TEV-cMet. After a 12 minute incubation at room temperature the reaction was terminated with […] 50 mM EDTA.
Phosphorylation of the peptide substrate was detected with PanVera Tyrosine Kinase Assay Kit, Green reagents (P2837). Five minutes after the addition of EDTA, 10 μl of antibody/tracer mix (Pan Vera reagents, 1:1:3 dilution of antibody: Tracer: FP dilution buffer, Cat. # P2837) was added to each well. Plates were allowed to incubate for 30 minutes at room temperature and fluorescence polarization was measured with an LJL Analyst instrument (Molecular Devices; Sunnyvale, Calif.) with excitation=485 nm filter and emission=530 nm filter. IC50 values were calculated from triplicate sets of data using Graphpad Prism software (Graphpad Software; San Diego, Calif.).
Target sequence in this assay (P08581 1046-1390): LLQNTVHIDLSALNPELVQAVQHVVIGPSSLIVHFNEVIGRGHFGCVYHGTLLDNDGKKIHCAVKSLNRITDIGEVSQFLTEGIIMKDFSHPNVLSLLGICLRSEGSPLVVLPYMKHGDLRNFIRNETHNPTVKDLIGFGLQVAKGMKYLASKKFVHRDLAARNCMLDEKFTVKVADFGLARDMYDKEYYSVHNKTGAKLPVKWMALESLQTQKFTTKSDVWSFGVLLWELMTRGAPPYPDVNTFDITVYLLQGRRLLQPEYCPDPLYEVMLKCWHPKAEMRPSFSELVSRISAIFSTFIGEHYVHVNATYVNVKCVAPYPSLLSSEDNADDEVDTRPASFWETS

Q: Which results are given for CN(C)CCNC(=O)c1cc(Br)c2c(c1)NC(=O)/C2=N\NC(=O)Cc1ccc2c(c1)CCO2 [Example 8, 4-Bromo-3-[(2-2,3-dihydro-benzofuran-5-yl-acetyl)-hydrazono]-2-oxo-2,3-dihydro-1H-indole-6-carboxylic acid (2-dimethylamino-ethyl)-amide]?
A: solubility at 15 min (Aqueous solubility assay): 41.1 µM (≈ 21.1 µg/mL); IC50 (c-Met [1]): 1 nM; IC50 (c-Met [2]): 10 nM
